Assay results reported in patent US20240010606A1, “FUMARATE DERIVATIVES AND THEIR MEDICAL USE” (Sitryx Therapeutics Limited, priority 2020, published 2024).

Key:
[1] = Hepatocyte stability assay, mouse; assay type: in vitro ADME; conditions: mouse, cryopreserved hepatocytes, 10 μM compound, Table 6, read-out: T½
Procedure, shortened: (§1)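 Cryopreserved hepatocytes (viability >70%) at 0.5×10^6 cells/mL in Leibovitz buffer, preincubated 10 min at 37 °C, then compound at 10 μM (0.1% DMSO) in duplicate; buffer-only incubations as control. Samples at 0-60 min quenched in acetonitrile, analysed by LC-MS/MS; half-life and CLint (μL min^−1 10^−6 cells) from ln % remaining versus time.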

hepatocytes [2] = test: Hepatocyte stability assay, mouse; assay type: in vitro ADME; conditions: 10 μM compound, Table 6
Procedure, shortened: as §1

NRF2 = NRF2 activation assay (DiscoverX PathHunter NRF2 translocation kit, U2OS cells); assay type: cell-based
Procedure, shortened: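 PathHunter U2OS cells, grown 24 h at 37 °C/5% CO2, treated 6 h with compound; NRF2 nuclear translocation read as enzyme-fragment-complementation chemiluminescence. Activation normalised to dimethyl fumarate high and untreated low controls; EC50 from concentration-response curve.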

[3] = Hepatocyte stability assay, human; assay type: in vitro ADME; conditions: cryopreserved hepatocytes, 10 μM compound, Table 6, read-out: T½
Procedure, shortened: as §1

hepatocytes [4] = test: Hepatocyte stability assay, human; assay type: in vitro ADME; conditions: 10 μM compound, Table 6
Procedure, shortened: as §1

IL-1β = test: THP-1 AlphaLISA IL-1β cytokine assay; assay type: cell-based; conditions: Homo sapiens; differentiated THP-1 cells; Table 2, compounds of formula (II)
Procedure, shortened: (§2)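 THP-1 cells differentiated 72 h with PMA, pre-incubated 30 min with compounds, stimulated 24 h with LPS, then 1 h with nigericin, all at 37 °C. Supernatant cytokine measured by AlphaLISA; % inhibition normalised to ±LPS controls and IC50 taken from concentration-response curves.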

IL-6 = test: THP-1 AlphaLISA IL-6 cytokine assay; assay type: cell-based; conditions: Homo sapiens, THP-1, differentiated THP-1 cells; Table 2, compounds of formula (II)
Procedure, shortened: as §2

[5] = +GSH, Table 4, compounds of formula (II)
[6] = −GSH, Table 4, compounds of formula (II)

| SMILES | half-life at 10 μM [1] [h] | CIint (hepatocytes [2]) | EC50 (NRF2; [5]) [µM] | NRF2 activation Emax (NRF2; [5]) | EC50 (NRF2; +GSH, from repeated experiments, Table 4) [µM] | EC50 (NRF2; [6]) [µM] | NRF2 activation Emax (NRF2; [6]) | half-life at 10 μM [3] [h] | CIint (hepatocytes [4]) | IC50 (IL-1β) [µM] | IC50 (IL-6) [µM] |
| --- | --- | --- | --- | --- | --- | --- | --- | --- | --- | --- | --- |
| CC(C)(OC(=O)/C=C/C(=O)O)c1ccc(C(F)(F)F)cc1 [Intermediate 21, (E)-4-oxo-4-((2-(4-(trifluoromethyl)phenyl)propan-2-yl)oxy)but-2-enoic acid] | > 1.67 | ++++ (++++ means 5-15) | < 23 | ++ (++ means >87-114%) | 23 to 48.4 | < 23 | +++ (+++ means >114-150%) | > 1.67 | ++++ (++++ means 5-15) | 6 to 30 | > 100 |
| O=C(O)/C=C/C(=O)OC1(c2cc(Cl)c(F)c(Cl)c2)CCC1 [Intermediate 25, (E)-4-(1-(3,5-dichloro-4-fluorophenyl)cyclobutoxy)-4-oxobut-2-enoic acid] | 0.5 to 1.67 | ++ (++ means >30-110) | < 23 | ++ (++ means >87-114%) |  | < 23 | ++++ (++++ means >150%) | > 1.67 | +++ (+++ means >15-30) | 6 to 30 | < 6 |
| O=C(O)/C=C/C(=O)OC1(c2ccc(C(F)(F)F)c(Cl)c2)CCC1 [Intermediate 26, (E)-4-(1-(3-chloro-4-(trifluoromethyl)phenyl)cyclobutoxy)-4-oxobut-2-enoic acid] | 0.5 to 1.67 | ++ (++ means >30-110) | < 23 | ++ (++ means >87-114%) |  | < 23 | +++ (+++ means >114-150%) | 0.5 to 1.67 | +++ (+++ means >15-30) | < 6 | < 6 |
| O=C(O)/C=C/C(=O)OC1(c2ccc(OC(F)(F)F)cc2)CCC1 [Intermediate 30, (E)-4-oxo-4-(1-(4-(trifluoromethoxy)phenyl)cyclobutoxy)but-2-enoic acid] | 0.5 to 1.67 | +++ (+++ means >15-30) | 23 to 48.4 | ++ (++ means >87-114%) |  | < 23 | +++ (+++ means >114-150%) | > 1.67 | ++++ (++++ means 5-15) | < 6 | 6 to 30 |
| O=C(O)/C=C/C(=O)OC1(c2ccc(C(F)(F)F)cc2)CC1 [Intermediate 38, (E)-4-oxo-4-(1-(4-(trifluoromethyl)phenyl)cyclopropoxy)but-2-enoic acid] | 0.0833 to 0.483 | ++ (++ means >30-110) | < 23 | + (+ means >50-<87%) |  | < 23 | ++++ (++++ means >150%) | 0.5 to 1.67 | +++ (+++ means >15-30) | < 6 | 6 to 30 |
